Laboratory results from patent US11426473B2, “Nitrogen-containing compound or salt thereof, or metal complex thereof” (FUJIFILM Corporation, priority 2013, dated 2022).
Like-named read-outs stand apart in the source and are kept apart here.

Assays:
[1] = test system: U87MG cells subcutaneous tumor; test: Concentration of radioactivity in tumor of labeled compounds (Test Example 4); type: in vivo, mouse; conditions: tail vein, 111In 740 kBq, 64Cu and 90Y 500 kBq
Method: U87MG cells were subcutaneously transplanted at 1×10^7 cells/mouse to the right flank of Balb/cAJcl-nu/nu (CLEA Japan, Inc. or Japan SLC, Inc., 6 to 9 weeks old). After 2 to 3 weeks, the mice were divided into groups each involving 3 individuals per point in time when their tumors became 200 to 500 mm^3. The ^111In-labeled compound (740 kBq) was administered to the tail veins of the mice.
After a given time, the animals were sacrificed to extract their tumors. The weights of the tumors were measured, and the radioactivity was measured using a gamma counter to calculate the concentration of radioactivity in the tumors (% ID/g). In the same way as above, the concentration of radioactivity in the tumors (% ID/g) was calculated for the ^64Cu-labeled compound (500 kBq) and the ^90Y-labeled compound (500 kBq).

[2] = target: T1, Integrin αvβ5 (Homo sapiens, UniProt P06756+P18084); test: Integrin αvβ5 binding affinity test
T1 construct: purchased Chemicon International, Inc
Method: (§1) […] αvβ5 (Chemicon International, Inc.) was immobilized on each well of a 96-well plate (Corning Inc.). Each well was blocked with a 1% Block Ace (DS Pharma Biomedical Co., Ltd) solution and then washed with PBST (10 mM Na2HPO4 pH 7.5, 150 mM NaCl, and 0.01% Tween 20). Evaluation compound solutions having a 2-fold concentration (10 concentrations of 3.16-fold dilutions from 0.3 μmol/L, buffer (20 mM Tris-HCl pH 7.5, 150 mM NaCl, 1 mM CaCl2, 1 mM MgCl2, and 1 mM MnCl2)) and a 4 μg/mL biotinylated vitronectin solution (vitronectin (Upstate Biotechnology Inc.) was labeled with EZ-Link Sulfo-NHS-Biotinylation Kit (Pierce/Thermo Fisher Scientific Inc.) and then concentration-adjusted) were each added at 50 μL/well, and the plate was shaken at room temperature for 2 hours. After washing with PBST, a 0.2 μg/mL avidin peroxidase (Pierce/Thermo Fisher Scientific Inc.) solution was added thereto, and the plate was shaken at room temperature for 1 hour. After washing with PBST, color was developed by an o-phenylenediamine (Sigma-Aldrich Inc.) solution (the reaction was terminated by the addition of 4 mol/L sulfuric acid), and the absorbance was measured (490 nm, Reference: 595 nm). The IC50 value was calculated using XLfit 3.0 (ID Business Solutions Ltd.). RGDfV (Bachem AG) was measured in duplicate as a QC sample for each plate.

[3] = target: T2, Integrin αvβ3 (Homo sapiens, UniProt P05106+P06756); test: Integrin αvβ3 binding affinity test
T2 construct: purchased Chemicon International, Inc
Method: as §1, with “αvβ3” for “αvβ5”, “T-PBS (PBS containing 0.05%” for “PBST (10 mM Na2HPO4 pH 7.5, 150 mM NaCl, and 0.01%”, “T-PBS,” for “PBST,”

[4] = inhibition of biotinylated vitronectin binding to immobilized αvβ5, read-out: IC50 value αvβ5
[5] = inhibition of biotinylated vitronectin binding to immobilized αvβ3, read-out: IC50 value αv β3

T1 sequence (P06756 31-889 limits assumed): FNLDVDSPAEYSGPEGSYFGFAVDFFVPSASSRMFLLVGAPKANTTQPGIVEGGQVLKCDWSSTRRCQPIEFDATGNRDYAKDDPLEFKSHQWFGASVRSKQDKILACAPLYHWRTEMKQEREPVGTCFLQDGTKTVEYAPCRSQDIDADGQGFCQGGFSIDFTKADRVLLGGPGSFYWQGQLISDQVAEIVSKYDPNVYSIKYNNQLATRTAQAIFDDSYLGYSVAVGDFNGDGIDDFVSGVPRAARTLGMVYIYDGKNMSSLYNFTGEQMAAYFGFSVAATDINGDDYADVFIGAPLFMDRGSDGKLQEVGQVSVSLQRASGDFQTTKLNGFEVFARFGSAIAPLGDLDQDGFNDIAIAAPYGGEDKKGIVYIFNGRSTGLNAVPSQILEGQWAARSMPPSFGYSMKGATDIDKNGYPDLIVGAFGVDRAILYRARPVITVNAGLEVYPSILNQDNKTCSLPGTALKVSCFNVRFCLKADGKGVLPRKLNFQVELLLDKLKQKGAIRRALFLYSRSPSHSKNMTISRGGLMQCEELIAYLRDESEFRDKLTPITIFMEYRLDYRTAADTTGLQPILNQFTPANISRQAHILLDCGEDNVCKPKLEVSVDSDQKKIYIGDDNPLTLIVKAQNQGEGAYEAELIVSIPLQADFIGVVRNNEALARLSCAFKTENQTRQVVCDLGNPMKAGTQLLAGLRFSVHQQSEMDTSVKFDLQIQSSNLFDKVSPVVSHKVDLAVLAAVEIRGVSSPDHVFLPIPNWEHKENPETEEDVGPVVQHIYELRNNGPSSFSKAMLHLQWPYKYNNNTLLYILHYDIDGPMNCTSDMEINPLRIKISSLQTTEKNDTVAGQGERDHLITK
T1 sequence (P06756 891-1048 partner limits assumed): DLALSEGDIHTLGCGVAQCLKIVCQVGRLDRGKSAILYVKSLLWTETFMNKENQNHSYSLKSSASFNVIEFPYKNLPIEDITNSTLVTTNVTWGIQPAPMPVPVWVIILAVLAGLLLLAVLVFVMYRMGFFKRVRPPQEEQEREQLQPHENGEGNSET
T1 sequence (P18084 24-799): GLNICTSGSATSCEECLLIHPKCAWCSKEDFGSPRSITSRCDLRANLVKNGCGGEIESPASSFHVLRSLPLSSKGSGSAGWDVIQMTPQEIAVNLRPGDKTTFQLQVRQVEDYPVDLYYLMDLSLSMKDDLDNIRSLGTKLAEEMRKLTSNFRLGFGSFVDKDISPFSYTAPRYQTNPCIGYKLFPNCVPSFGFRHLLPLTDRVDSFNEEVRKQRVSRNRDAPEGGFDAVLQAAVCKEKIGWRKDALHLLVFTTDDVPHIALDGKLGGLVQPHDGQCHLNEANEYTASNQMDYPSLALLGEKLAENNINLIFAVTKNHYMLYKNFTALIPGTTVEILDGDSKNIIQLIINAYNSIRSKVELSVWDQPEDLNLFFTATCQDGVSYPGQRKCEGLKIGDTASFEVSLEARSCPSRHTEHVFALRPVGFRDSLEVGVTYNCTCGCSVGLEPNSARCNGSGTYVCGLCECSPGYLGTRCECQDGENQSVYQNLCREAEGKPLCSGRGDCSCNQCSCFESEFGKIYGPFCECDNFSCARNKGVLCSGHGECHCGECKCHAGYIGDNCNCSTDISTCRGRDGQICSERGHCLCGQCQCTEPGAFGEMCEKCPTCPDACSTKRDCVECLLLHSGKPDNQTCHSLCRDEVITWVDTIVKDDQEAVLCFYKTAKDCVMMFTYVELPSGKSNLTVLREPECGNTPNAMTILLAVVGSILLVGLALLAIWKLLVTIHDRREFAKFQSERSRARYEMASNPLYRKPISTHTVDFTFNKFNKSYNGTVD
T2 sequence (P06756 31-889 limits assumed): as the sequence (P06756 31-889 limits assumed) above
T2 sequence (P06756 891-1048 partner limits assumed): as the sequence (P06756 891-1048 partner limits assumed) above
T2 sequence (P05106 27-788): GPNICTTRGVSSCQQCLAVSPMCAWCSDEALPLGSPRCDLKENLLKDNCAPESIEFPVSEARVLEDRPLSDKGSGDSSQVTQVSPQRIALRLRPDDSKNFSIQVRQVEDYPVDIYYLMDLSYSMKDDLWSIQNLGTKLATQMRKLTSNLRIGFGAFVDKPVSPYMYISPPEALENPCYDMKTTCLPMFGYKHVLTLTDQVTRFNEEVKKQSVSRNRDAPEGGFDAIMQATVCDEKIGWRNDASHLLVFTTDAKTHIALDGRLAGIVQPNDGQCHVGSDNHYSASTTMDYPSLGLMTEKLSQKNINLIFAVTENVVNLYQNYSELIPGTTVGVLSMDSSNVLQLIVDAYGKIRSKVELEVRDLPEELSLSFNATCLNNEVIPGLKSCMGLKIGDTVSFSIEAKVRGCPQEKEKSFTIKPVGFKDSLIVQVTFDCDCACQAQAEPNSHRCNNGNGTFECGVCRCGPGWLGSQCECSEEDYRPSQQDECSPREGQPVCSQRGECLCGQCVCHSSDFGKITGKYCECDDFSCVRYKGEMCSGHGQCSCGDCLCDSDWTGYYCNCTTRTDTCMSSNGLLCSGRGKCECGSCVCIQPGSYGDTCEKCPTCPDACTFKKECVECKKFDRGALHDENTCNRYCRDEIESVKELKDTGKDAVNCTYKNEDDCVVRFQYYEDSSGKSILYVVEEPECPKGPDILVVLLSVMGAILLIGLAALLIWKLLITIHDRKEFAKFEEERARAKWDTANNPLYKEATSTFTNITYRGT

| SMILES | Concentration of radioactivity in tumor ([1]; 4 hours later) [% ID/g] | Concentration of radioactivity in tumor ([1]; 24 hours later) [% ID/g] | further results |
| --- | --- | --- | --- |
| Cc1cc(OCCCC(=O)NCCNC(=O)[C@H](CS(=O)(=O)O)NC(=O)CCC(C(=O)O)N2CCCN3CCN(CCCN(CC(=O)O)CC3)CC2)cc(C)c1S(=O)(=O)N[C@@H](CNC(=O)CCCCc1ccc2c(n1)NCCC2)C(=O)O (single isomer, unassigned) [Ab9-a] | – | – | IC50 [2, 4]: < 1 nM; IC50 [3, 5]: < 1 nM |
| Cc1cc(OCCCC(=O)NCCNC(=O)[C@H](CS(=O)(=O)O)NC(=O)CCC(C(=O)O)N2CCCN3CCN(CCCN(CC(=O)O)CC3)CC2)cc(C)c1S(=O)(=O)N[C@@H](CNC(=O)CCCCc1ccc2c(n1)NCCC2)C(=O)O (single isomer, unassigned) [Ab9-b] | – | – | IC50 [2, 4]: < 1 nM; IC50 [3, 5]: < 1 nM |
| Cc1cc(OCCCC(=O)NCCNC(=O)C(CS(=O)(=O)O)NC(=O)CN2CCN3CCN4CCN(CC2)CC(=O)[O][In]([O]C(=O)C3)[O]C(=O)C4)cc(C)c1S(=O)(=O)NC(CNC(=O)CCCCc1ccc2c(n1)NCCC2)C(=O)O (stereo not drawn) [AA] | – | – | IC50 [2]: < 1 nM; IC50 [3]: < 1 nM |
| Cc1cc(OCCCC(=O)NCCNC(=O)[C@H](CS(=O)(=O)O)NC(=O)CC[C@H](C(=O)O)N2CCN(CC(=O)O)CCN(CC(=O)O)CC2)cc(C)c1S(=O)(=O)N[C@@H](CNC(=O)CCCCc1ccc2c(n1)NCCC2)C(=O)O [Aa7, 2,2′-(7-((R)-1-carboxy-4-(((R)-1-((2-(4-(4-(N—((S)-1-carboxy-2-(5-(5,6,7,8-tetrahydro-1,8-naphthyridin-2-yl)pentanamido)ethyl)sulfamoyl)-3,5-dimethylphenoxy)butanamido)ethyl)amino)-1-oxo-3-sulfopropan-2-yl)amino)-4-oxobutyl)-1,4,7-triazonane-1,4-diyl)diacetic acid] | – | – | IC50 [2, 4]: < 1 nM; IC50 [3, 5]: < 1 nM |
| Cc1cc(OCCCC(=O)NCCNC(=O)COCCOCCNC(=O)CN2CCN3CCN4CCN(CC2)CC(=O)[O][In]([O]C(=O)C3)[O]C(=O)C4)cc(C)c1S(=O)(=O)NC(CNC(=O)c1ccc(CCc2ccc3c(n2)NCCC3)cc1)C(=O)O (stereo not drawn) [BB] | – | – | IC50 [2]: < 1 nM; IC50 [3]: < 1 nM |
| O=C(O)C[C@H](NC(=O)c1ccc(CCc2ccc3c(n2)NCCC3)cc1)c1ccc(OCCCC(=O)NCCNC(=O)[C@H](CS(=O)(=O)O)NC(=O)[C@H](CS(=O)(=O)O)NC(=O)CN2CCN(CC(=O)O)CCN(CC(=O)O)CCN(CC(=O)O)CC2)c(F)c1 [Compound Q12, 2,2′,2″-(10-((4R,7R)-16-(4-((S)-2-carboxy-1-(4-(2-(5,6,7,8-tetrahydro-1,8-naphthyridin-2-yl)ethyl)benzamido)ethyl)-2-fluorophenoxy)-2,5,8,13-tetraoxo-4,7-bis(sulfomethyl)-3,6,9,12-tetraazahexadecyl)-1,4,7,10-tetraazacyclododecane-1,4,7-triyl)triacetic acid] | – | – | IC50 [3, 5]: < 1 nM |
| Cc1cc(OCCCC(=O)NCCNC(=O)COCCOCCNC(=O)COCCOCCNC(=O)CN2CCN(CC(=O)[O-])CCN(CC(=O)[O-])CCN(CC(=O)[O-])CC2)cc(C)c1S(=O)(=O)N[C@@H](CNC(=O)c1ccc(CCc2ccc3c(n2)NCCC3)cc1)C(=O)O.[111In+3] [[^111In]-(F3)] | 11.80 | 8.41 | – |
| Cc1cc(OCCCC(=O)NCCNC(=O)COCCOCCNC(=O)[C@H](CS(=O)(=O)O)NC(=O)CN2CCN(CC(=O)[O-])CCN(CC(=O)[O-])CCN(CC(=O)[O-])CC2)cc(C)c1S(=O)(=O)N[C@@H](CNC(=O)c1ccc(CCc2ccc3c(n2)NCCC3)cc1)C(=O)O.[111In+3] [[^111In]-(G3)] | 10.50 | 9.82 | – |
| Cc1cc(OCCCC(=O)NCCNC(=O)C(CS(=O)(=O)O)NC(=O)CCC(NC(=O)CN2CCN(CC(=O)[O-])CCN(CC(=O)[O-])CCN(CC(=O)[O-])CC2)C(=O)NC(CS(=O)(=O)O)C(=O)NCCNC(=O)CCCOc2cc(C)c(S(=O)(=O)NC(CNC(=O)c3ccc(CCc4ccc5c(n4)NCCC5)cc3)C(=O)O)c(C)c2)cc(C)c1S(=O)(=O)NC(CNC(=O)c1ccc(CCc2ccc3c(n2)NCCC3)cc1)C(=O)O.[111In+3] (stereo not drawn) [[^111In]-(H9)] | 9.17 | 8.74 | – |
| Cc1cc(OCCCC(=O)NCCNC(=O)[C@H](CS(=O)(=O)O)NC(=O)[C@H](CS(=O)(=O)O)NC(=O)CN2CCN(CC(=O)[O-])CCN(CC(=O)[O-])CCN(CC(=O)[O-])CC2)cc(C)c1S(=O)(=O)N[C@@H](CNC(=O)c1ccc(CCc2cccc(N)n2)cc1)C(=O)O.[111In+3] [[^111In]-(N3)] | 9.75 | 5.93 | – |
| Cc1cc(OCCCC(=O)NCCNC(=O)[C@H](CS(=O)(=O)O)NC(=O)[C@H](CS(=O)(=O)O)NC(=O)CN2CCN(CC(=O)[O-])CCN(CC(=O)[O-])CCN(CC(=O)[O-])CC2)cc(C)c1S(=O)(=O)N[C@@H](CNC(=O)c1ccc(CCc2ccc3c(n2)NCCC3)s1)C(=O)O.[111In+3] [[^111In]-(X9)] | 8.54 | 8.54 | – |

Second part, led by results:

| Concentration of radioactivity in tumor ([1]; 4 hours later) [% ID/g] | Concentration of radioactivity in tumor ([1]; 24 hours later) [% ID/g] | SMILES | further results |
| --- | --- | --- | --- |
| 10.60 | 9.95 | O=C([O-])CN1CCN(CC(=O)[O-])CCN(CC(=O)NC(CS(=O)(=O)O)C(=O)NC(CS(=O)(=O)O)C(=O)NCCNC(=O)CCCOc2cncc(C(CC(=O)O)n3ccc4cc(OCCc5ccc6c(n5)NCCC6)ccc43)c2)CCN(CC(=O)[O-])CC1.[111In+3] (mixture of isomers) [[^111In]-(I21)] | – |
| 8.58 | 11.00 | Cc1cc(OCCCC(=O)NCCNC(=O)[C@H](CS(=O)(=O)O)NC(=O)CN2CCN(CC(=O)[O-])CCN(CC(=O)[O-])CCN(CC(=O)[O-])CC2)cc(C)c1S(=O)(=O)N[C@@H](CNC(=O)c1ccc(CCc2ccc3c(n2)NCCC3)cc1)C(=O)O.[111In+3] [[^111In]-(B2)] | – |
| 10.50 | 7.73 | Cc1cc(OCCCC(=O)NCCNC(=O)COCCOCCNC(=O)CN2CCN(CC(=O)[O-])CCN(CC(=O)[O-])CCN(CC(=O)[O-])CC2)cc(C)c1S(=O)(=O)N[C@@H](CNC(=O)c1ccc(CCc2ccc3c(n2)NCCC3)cc1)C(=O)O.[111In+3] [[^111In]-(D3)] | – |
| 11.00 | 12.40 | Cc1cc(OCCCC(=O)NCCNC(=O)COCCOCCNC(=O)C(CCCCN)NC(=O)CN2CCN(CC(=O)[O-])CCN(CC(=O)[O-])CCN(CC(=O)[O-])CC2)cc(C)c1S(=O)(=O)NC(CNC(=O)c1ccc(CCc2ccc3c(n2)NCCC3)cc1)C(=O)O.[111In+3] (stereo not drawn) [[^111In]-(E3)] | – |
| 12.80 | 12.40 | Cc1cc(OCCCC(=O)NCCNC(=O)C(CS(=O)(=O)O)NC(=O)C(CS(=O)(=O)O)NC(=O)CN2CCN(CC(=O)[O-])CCN(CC(=O)[O-])CCN(CC(=O)[O-])CC2)cc(C)c1S(=O)(=O)NC(CNC(=O)CCCCc1ccc2c(n1)NCCC2)C(=O)O.[111In+3] (stereo not drawn) [[^111In]-(O10)] | – |
| 6.95 | 3.34 | Cc1cc(OCCCC(=O)NCCNC(=O)C(CS(=O)(=O)O)NC(=O)C(CS(=O)(=O)O)NC(=O)CN2CCN(CC(=O)[O-])CCN(CC(=O)[O-])CCN(CC(=O)[O-])CC2)cc(C)c1S(=O)(=O)NC(CNC(=O)c1ccc(CCCNc2ccccn2)cc1)C(=O)O.[111In+3] (stereo not drawn) [[^111In]-(Z8)] | – |
